The source of these data is ChEMBL document CHEMBL4368941, “Discovery of 3,6-diaryl-1H-pyrazolo[3,4-b]pyridines as potent anaplastic lymphoma kinase (ALK) inhibitors” (Bioorg Med Chem Lett, 2019).

The target of test [1] is ALK tyrosine kinase receptor (Homo sapiens, UniProt Q9UM73).
Description: Inhibition of recombinant ALK (unknown origin) using peptide substrate measured after 1 hr by LanthaScreen assay
The subject of test [2] is KARPAS-299. Briefly: cells. To be noted: Homo sapiens, KARPAS-299, 72 h.
Description: Antiproliferative activity against human KARPAS299 cells after 3 days by MTT assay

Chain of ALK tyrosine kinase receptor (Q9UM73 whole entry): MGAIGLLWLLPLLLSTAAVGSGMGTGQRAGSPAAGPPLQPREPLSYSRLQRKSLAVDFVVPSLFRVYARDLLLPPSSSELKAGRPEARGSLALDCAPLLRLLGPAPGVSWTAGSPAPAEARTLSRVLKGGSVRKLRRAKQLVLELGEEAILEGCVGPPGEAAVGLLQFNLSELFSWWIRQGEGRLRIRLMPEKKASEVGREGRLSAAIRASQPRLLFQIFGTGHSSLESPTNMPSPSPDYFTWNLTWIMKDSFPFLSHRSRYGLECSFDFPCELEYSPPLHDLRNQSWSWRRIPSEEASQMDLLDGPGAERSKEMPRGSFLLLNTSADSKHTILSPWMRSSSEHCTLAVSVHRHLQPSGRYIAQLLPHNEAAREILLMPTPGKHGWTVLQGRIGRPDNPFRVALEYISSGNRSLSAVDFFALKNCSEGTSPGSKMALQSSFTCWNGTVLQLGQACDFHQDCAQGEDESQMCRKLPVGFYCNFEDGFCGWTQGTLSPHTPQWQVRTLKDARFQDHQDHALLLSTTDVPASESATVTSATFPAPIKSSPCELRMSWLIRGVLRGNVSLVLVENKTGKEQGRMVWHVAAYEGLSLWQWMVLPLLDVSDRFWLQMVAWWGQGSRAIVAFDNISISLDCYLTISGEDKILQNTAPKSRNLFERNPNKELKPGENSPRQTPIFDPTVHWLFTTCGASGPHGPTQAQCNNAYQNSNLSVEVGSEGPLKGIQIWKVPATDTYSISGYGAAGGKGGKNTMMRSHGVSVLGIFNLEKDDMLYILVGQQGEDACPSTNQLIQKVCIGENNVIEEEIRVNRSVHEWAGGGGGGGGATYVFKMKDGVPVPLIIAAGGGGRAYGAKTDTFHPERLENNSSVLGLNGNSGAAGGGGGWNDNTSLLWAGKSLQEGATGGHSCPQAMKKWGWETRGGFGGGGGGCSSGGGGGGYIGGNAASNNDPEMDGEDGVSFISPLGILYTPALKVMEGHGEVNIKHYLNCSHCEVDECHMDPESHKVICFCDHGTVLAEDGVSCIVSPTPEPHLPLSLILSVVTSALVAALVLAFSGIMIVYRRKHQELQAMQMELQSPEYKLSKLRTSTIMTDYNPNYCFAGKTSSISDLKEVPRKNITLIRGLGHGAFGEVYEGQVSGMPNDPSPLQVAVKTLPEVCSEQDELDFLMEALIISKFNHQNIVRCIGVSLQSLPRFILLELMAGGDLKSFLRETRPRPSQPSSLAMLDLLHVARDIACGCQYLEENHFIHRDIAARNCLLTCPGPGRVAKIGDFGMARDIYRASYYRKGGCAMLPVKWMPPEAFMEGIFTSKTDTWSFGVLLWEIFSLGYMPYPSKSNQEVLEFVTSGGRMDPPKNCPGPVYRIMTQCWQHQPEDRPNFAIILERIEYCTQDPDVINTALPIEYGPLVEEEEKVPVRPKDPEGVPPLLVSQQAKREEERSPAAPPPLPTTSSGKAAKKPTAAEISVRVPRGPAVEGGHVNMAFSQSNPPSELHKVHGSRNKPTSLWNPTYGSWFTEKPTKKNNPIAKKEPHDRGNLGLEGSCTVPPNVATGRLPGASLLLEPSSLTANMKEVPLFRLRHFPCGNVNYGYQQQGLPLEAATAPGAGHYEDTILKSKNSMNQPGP

In turn, `Oc1ccc(-c2ccc3c(-c4ccc(N5CCCCC5)cc4)n[nH]c3n2)cc1` displayed an IC50 in test [1] of 339 nM.

Turning to `OCC1CCCCN1Cc1ccc(-c2n[nH]c3nc(-c4ccc(O)cc4)ccc23)o1` (stereo not drawn), the IC50 in test [1] turned out to be 568 nM.

For the compound `Oc1ccc(-c2ccc3c(-c4ccc(N5CCOCC5)cc4)n[nH]c3n2)cc1`, in test [1], the IC50 came to 425 nM.

As to `Oc1ccc(-c2ccc3c(-c4cnn(C5CCNCC5)c4)n[nH]c3n2)cc1`, the IC50 in test [2] stood at 340 nM; in test [1], 13.8 nM.

In test [1], `Oc1ccc(-c2ccc3c(-c4ccc(CN5CCCCC5)o4)n[nH]c3n2)cc1` had an IC50 of 394 nM.

On to `CC(C)N1CCN(c2ccc(-c3n[nH]c4nc(-c5ccc(Cl)cc5)ccc34)cc2)CC1`, for which the IC50 in test [2] was above 10000 nM; in test [1] it was above 2000 nM.

As to `CC(C)N1CCN(c2ccc(-c3n[nH]c4nc(-c5ccc(O)cc5)ccc34)cc2)CC1`, the IC50 in test [1] worked out at 47.4 nM.

Take `CC(C)N1CCN(c2ccc(-c3n[nH]c4nc(-c5ccc(C(C)(C)O)cc5)ccc34)cc2)CC1`: the IC50 is 105000 nM in test [2] and above 2000 nM in test [1].

On to `CC(C)N1CCN(c2ccc(-c3n[nH]c4nc(-c5ccc(C#N)cc5)ccc34)cc2)CC1`, for which the IC50 in test [2] and in test [1] was above 2000 nM throughout.

Turning to `CC(C)N1CCN(c2ccc(-c3n[nH]c4nc(-c5cc(F)c(O)c(F)c5)ccc34)cc2)CC1`, the IC50 was 149 nM in test [2] and 649 nM in test [1].

The compound `Cc1ccc(-c2n[nH]c3nc(-c4ccc(O)cc4)ccc23)o1` came in with an IC50 in test [1] of 53.9 nM.

In test [1], `Oc1ccc(-c2ccc3c(-c4ccc(CN5CCOCC5)o4)n[nH]c3n2)cc1` came in with a 50% inhibitory concentration (IC50) of 94.1 nM.

In test [1], `Oc1ccc(-c2ccc3c(-c4ccc(Cl)cc4)n[nH]c3n2)cc1` came in with an IC50 above 2000 nM.

For `Oc1ccc(-c2ccc3c(-c4ccc(CN5CCCC5)o4)n[nH]c3n2)cc1`, in test [1], inhibition was half-maximal at 253 nM (IC50).

Take `Oc1ccc(-c2ccc3c(-c4ccc(F)cc4)n[nH]c3n2)cc1`: 336 nM corresponded to half-maximal inhibition in test [1] (IC50).

`CN(CCO)Cc1ccc(-c2n[nH]c3nc(-c4ccc(O)cc4)ccc23)o1`: the IC50 in test [1] turned out to be 83.2 nM.

The compound `CN1CCN(Cc2ccc(-c3n[nH]c4nc(-c5ccc(O)cc5)ccc34)o2)CC1` had an IC50 in test [1] of 194 nM.

In the case of `Oc1ccc(-c2ccc3c(-c4ccccc4)n[nH]c3n2)cc1`, the IC50 in test [2] amounted to 24.2 nM; in test [1] it was 251 nM.

For the compound `COc1ccc(-c2n[nH]c3nc(-c4ccc(O)cc4)ccc23)cc1`, the IC50 in test [1] was 239 nM.

In turn, `Oc1ccc(-c2ccc3c(-c4ccc(O)cc4)n[nH]c3n2)cc1` yielded an IC50 in test [1] of 130 nM.

In turn, `CC(C)N1CCN(Cc2ccc(-c3n[nH]c4nc(-c5ccc(O)cc5)ccc34)o2)CC1` yielded an IC50 in test [1] of 103 nM.

On to `COc1cc(N2CCN(C(C)C)CC2)ccc1-c1n[nH]c2nc(-c3ccc(O)c(F)c3)ccc12`, for which the IC50 came to 263 nM in test [2] and 53.1 nM in test [1].

Regarding `CC(C)N1CCN(c2ccc(-c3n[nH]c4nc(-c5ccc(O)c(F)c5)ccc34)cc2)CC1`, the IC50 in test [2] is above 2000 nM; in test [1], 1.58 nM.

With `CC(C)N1CCN(c2ccc(-c3n[nH]c4nc(-c5ccc(F)cc5)ccc34)cc2)CC1`, in test [1], the IC50 was above 2000 nM.

In the case of `COc1cc(N2CCN(C(C)C)CC2)ccc1-c1n[nH]c2nc(-c3ccc(O)cc3)ccc12`, the IC50 in test [2] turned out to be 2850 nM; in test [1], 27 nM.

Consider `Oc1ccc(-c2ccc3c(-c4cnn(C5CCNCC5)c4)n[nH]c3n2)cc1F`, for which the results for the IC50 in test [2] and in test [1] were 2100 nM and 39.6 nM, respectively.

Turning to `CC(C)N1CCN(c2ccc(-c3n[nH]c4nc(-c5ccc(N)cc5)ccc34)cc2)CC1`, the IC50 in test [2] was above 10000 nM; in test [1], 218 nM.

In general, IC50 refers to the concentration that inhibits the measured activity by half. A low value points to inhibition by little substance.
